Values quoted from earlier work, collected in US6232438A, “Angiotensin converting enzyme inhibitors” (Nong Shim Co., Ltd., priority 1996, dated 2001).

Target: ACE (Homo sapiens, UniProt P12821)
Conditions: peptide from enzymatic hydrolysate of milk casein

Chain of ACE (P12821 30-1306, species assumed): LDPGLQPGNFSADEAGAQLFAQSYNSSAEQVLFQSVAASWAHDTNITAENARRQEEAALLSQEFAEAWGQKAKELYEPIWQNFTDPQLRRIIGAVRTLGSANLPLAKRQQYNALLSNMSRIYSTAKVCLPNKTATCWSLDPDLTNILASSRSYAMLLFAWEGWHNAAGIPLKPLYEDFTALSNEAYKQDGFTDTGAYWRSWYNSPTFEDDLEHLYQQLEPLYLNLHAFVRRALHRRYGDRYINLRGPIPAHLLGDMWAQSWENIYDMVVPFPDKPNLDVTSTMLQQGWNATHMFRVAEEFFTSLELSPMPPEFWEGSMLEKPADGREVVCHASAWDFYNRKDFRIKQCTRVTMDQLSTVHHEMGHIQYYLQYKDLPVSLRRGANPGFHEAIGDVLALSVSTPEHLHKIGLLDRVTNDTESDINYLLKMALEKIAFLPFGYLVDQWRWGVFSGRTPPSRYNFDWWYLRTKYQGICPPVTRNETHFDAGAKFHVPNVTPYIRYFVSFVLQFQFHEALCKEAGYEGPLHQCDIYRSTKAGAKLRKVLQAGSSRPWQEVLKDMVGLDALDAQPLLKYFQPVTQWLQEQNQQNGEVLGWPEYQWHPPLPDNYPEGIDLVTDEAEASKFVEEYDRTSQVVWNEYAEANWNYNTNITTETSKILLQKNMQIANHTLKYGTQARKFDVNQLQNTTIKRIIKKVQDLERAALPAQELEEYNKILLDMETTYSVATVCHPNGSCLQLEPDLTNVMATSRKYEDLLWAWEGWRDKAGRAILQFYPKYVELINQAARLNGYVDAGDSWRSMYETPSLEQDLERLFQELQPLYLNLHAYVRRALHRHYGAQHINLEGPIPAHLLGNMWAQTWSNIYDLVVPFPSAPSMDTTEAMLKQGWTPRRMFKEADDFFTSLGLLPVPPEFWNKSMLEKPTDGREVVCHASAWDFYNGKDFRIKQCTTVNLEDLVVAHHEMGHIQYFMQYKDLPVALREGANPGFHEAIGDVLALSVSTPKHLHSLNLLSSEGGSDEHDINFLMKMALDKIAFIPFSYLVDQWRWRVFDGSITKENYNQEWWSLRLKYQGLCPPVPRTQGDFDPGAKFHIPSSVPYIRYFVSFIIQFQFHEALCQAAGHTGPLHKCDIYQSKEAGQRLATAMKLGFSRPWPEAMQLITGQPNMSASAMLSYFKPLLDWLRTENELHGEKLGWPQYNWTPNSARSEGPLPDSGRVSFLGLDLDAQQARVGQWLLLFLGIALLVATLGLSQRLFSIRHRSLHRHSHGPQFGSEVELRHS

IC50: 6 µM
Substance: phenylalanine-phenylalanine-valine-alanine-proline
